From patent US20250059171A1 (Hoffmann-La Roche Inc., priority 2021, published 2025)

What was measured:
SARS-CoV-2 3CLpro = SARS-CoV-2 3CLpro (Severe acute respiratory syndrome coronavirus 2, UniProt P0DTD1); assay: biochemical
HCoV-229E 3CLpro = HCoV-229E 3CLpro (Human coronavirus 229E, UniProt P0C6X1); assay: HCoV-229E 3CLpro inhibition assay (FRET); assay type: biochemical
MERS-CoV 3CLpro = MERS-CoV 3CLpro (Middle East respiratory syndrome-related coronavirus, UniProt K9N7C7); assay: biochemical
Chain of MERS-CoV 3CLpro (K9N7C7 3248-3553): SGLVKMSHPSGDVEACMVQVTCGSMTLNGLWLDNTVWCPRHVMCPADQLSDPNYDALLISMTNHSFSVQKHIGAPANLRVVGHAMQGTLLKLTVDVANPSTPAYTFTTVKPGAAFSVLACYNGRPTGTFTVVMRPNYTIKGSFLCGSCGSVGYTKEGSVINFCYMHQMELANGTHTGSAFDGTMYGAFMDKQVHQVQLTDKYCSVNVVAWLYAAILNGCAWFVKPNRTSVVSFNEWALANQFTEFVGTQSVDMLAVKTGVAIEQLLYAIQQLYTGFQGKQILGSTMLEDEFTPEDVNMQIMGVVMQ

SARS-CoV 3CLpro = SARS-CoV 3CLpro (Severe acute respiratory syndrome coronavirus, UniProt P0C6X7); assay: biochemical

Chain of HCoV-229E 3CLpro (P0C6X1 2966-3267): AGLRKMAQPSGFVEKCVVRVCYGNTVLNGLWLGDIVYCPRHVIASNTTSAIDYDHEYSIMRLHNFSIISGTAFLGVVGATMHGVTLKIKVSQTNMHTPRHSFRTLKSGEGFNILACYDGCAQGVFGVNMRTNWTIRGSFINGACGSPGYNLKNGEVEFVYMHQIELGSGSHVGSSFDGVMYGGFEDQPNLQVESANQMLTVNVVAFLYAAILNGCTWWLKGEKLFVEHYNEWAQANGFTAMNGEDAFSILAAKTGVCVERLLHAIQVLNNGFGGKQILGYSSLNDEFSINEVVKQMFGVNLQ

Row | SMILES | IC50 (SARS-CoV-2 3CLpro) | IC50 (HCoV-229E 3CLpro) | IC50 (MERS-CoV 3CLpro) | IC50 (SARS-CoV 3CLpro)
1 | CC[C@H](C)[C@H](NC(=O)[C@H](F)Cl)C(=O)N1C[C@@H]2CCC[C@@H]2[C@H]1C(=O)NN(C[C@H]1CCCNC1=O)C(=O)[C@H](F)Cl [Example 192, (2R)—N-[(1S,2S)-1-[(3S,3aS,6aR)-3-[[[(2R)-2-chloro-2-fluoro-acetyl]-[[(3R)-2-oxo-3-piperidyl]methyl]amino]carbamoyl]-3,3a,4,5,6,6a-hexahydro-1H-cyclopenta[c]pyrrole-2-carbonyl]-2-methyl-butyl]-2-chloro-2-fluoro-acetamide] | 10 nM | 52 nM | 148 nM | 17 nM
2 | CC[C@H](C)[C@H](NC(=O)[C@@H](F)Cl)C(=O)N1C[C@@H]2CCC[C@@H]2[C@H]1C(=O)NN(C[C@H]1CCCNC1=O)C(=O)[C@@H](F)Cl [Example 193, (2S)—N-[(1S,2S)-1-[(3S,3aS,6aR)-3-[[[(2S)-2-chloro-2-fluoro-acetyl]-[[(3R)-2-oxo-3-piperidyl]methyl]amino]carbamoyl]-3,3a,4,5,6,6a-hexahydro-1H-cyclopenta[c]pyrrole-2-carbonyl]-2-methyl-butyl]-2-chloro-2-fluoro-acetamide] | 17 nM | 49 nM | 110 nM | 33 nM
3 | CC[C@H](C)[C@H](NC(=O)[C@H](F)Cl)C(=O)N1C[C@H]2[C@@H]([C@H]1C(=O)NN(C[C@H]1CCCNC1=O)C(=O)[C@H](F)Cl)C2(C)C [Example 194, (2R)-2-chloro-N-[(1S,2S)-1-[(1R,2S,5S)-2-[[[(2R)-2-chloro-2-fluoro-acetyl]-[[(3R)-2-oxo-3-piperidyl]methyl]amino]carbamoyl]-6,6-dimethyl-3-azabicyclo[3.1.0]hexane-3-carbonyl]-2-methyl-butyl]-2-fluoro-acetamide] | 15 nM | 29 nM | 112 nM | 25 nM
4 | CC[C@H](C)[C@H](NC(=O)[C@@H](F)Cl)C(=O)N1C[C@H]2[C@@H]([C@H]1C(=O)NN(C[C@H]1CCCNC1=O)C(=O)[C@@H](F)Cl)C2(C)C [Example 195, (2S)-2-chloro-N-[(1S,2S)-1-[(1R,2S,5S)-2-[[[(2S)-2-chloro-2-fluoro-acetyl]-[[(3R)-2-oxo-3-piperidyl]methyl]amino]carbamoyl]-6,6-dimethyl-3-azabicyclo[3.1.0]hexane-3-carbonyl]-2-methyl-butyl]-2-fluoro-acetamide] | 28 nM | 29 nM | 112 nM | 51 nM
5 | CC(C)(C)[C@H](NC(=O)[C@@H]1CC1(F)F)C(=O)N1C[C@@H]2CCC[C@@H]2[C@H]1C(=O)NN(C[C@@H]1CCCNC1=O)C(=O)[C@H](F)Cl [Example 196, (1S)—N-[(1S)-1-[(3S,3aS,6aR)-3-[[[(2R)-2-chloro-2-fluoro-acetyl]-[[(3S)-2-oxo-3-piperidyl]methyl]amino]carbamoyl]-3,3a,4,5,6,6a-hexahydro-1H-cyclopenta[c]pyrrole-2-carbonyl]-2,2-dimethyl-propyl]-2,2-difluoro-cyclopropanecarboxamide] | 11 nM | 38 nM | 89 nM | 14 nM
6 | CC(C)(C)[C@H](NC(=O)[C@@H]1CC1(F)F)C(=O)N1C[C@@H]2CCC[C@@H]2[C@H]1C(=O)NN(C[C@@H]1CCCNC1=O)C(=O)[C@@H](F)Cl [Example 197, (1S)—N-[(1S)-1-[(3S,3aS,6aR)-3-[[[(2S)-2-chloro-2-fluoro-acetyl]-[[(3S)-2-oxo-3-piperidyl]methyl]amino]carbamoyl]-3,3a,4,5,6,6a-hexahydro-1H-cyclopenta[c]pyrrole-2-carbonyl]-2,2-dimethyl-propyl]-2,2-difluoro-cyclopropanecarboxamide] | 11 nM | 65 nM | 94 nM | 13 nM
